Source: ChEMBL document CHEMBL1143432, “Towards novel S-DABOC inhibitors: synthesis, biological investigation, and molecular modeling studies” (2008)

Legend:
[1] = test system: Human immunodeficiency virus 1; assay: Antiviral activity against drug-resistant HIV1 with reverse transcriptase Y181C mutant infected in human MT4 cells assessed as virus-induced cell death by MTT method; format: functional; conditions: Human immunodeficiency virus 1, MT4; read-out: ED50 (the source's name)
[2] = test system: Human immunodeficiency virus 1; assay: Antiviral activity against wild type HIV1 NL4-3 infected in human MT4 cells assessed as virus-induced cell death by MTT method; format: functional; conditions: Human immunodeficiency virus 1, NL4-3, MT4; read-out: ED50 (the source's name)
[3] = Ratio of ED50 for drug resistant HIV1 with reverse transcriptase K103N mutant to wild type HIV1 NL4-3; format: functional
[4] = Ratio of ED50 for drug resistant HIV1 with reverse transcriptase Y181C mutant to wild type HIV1 NL4-3; format: functional
[5] = test system: Human immunodeficiency virus 1; assay: Antiviral activity against drug-resistant HIV1 with reverse transcriptase K103N mutant infected in human MT4 cells assessed as virus-induced cell death by MTT method; format: functional; conditions: Human immunodeficiency virus 1, MT4; read-out: ED50 (the source's name)
[6] = target: Human immunodeficiency virus type 1 reverse transcriptase (Human immunodeficiency virus 1) (UniProt Q72547); assay: Inhibition of wild type HIV1 reverse transcriptase

Cc1c(N)nc(S(C)(=O)=O)nc1C(=O)c1ccccc1
EC50 [1]: 10.4 µM | EC50 [2]: 0.44 µM | Ratio EC50 [3]: 43 | Ratio EC50 [4]: 23 | EC50 [5]: 19.1 µM | ID50 [6]: 16 µM

CSc1nc(N)c(C)c(C(=O)c2cccc3ccccc23)n1
EC50 [1]: > 19.4 µM | EC50 [2]: > 19.4 µM | EC50 [5]: > 19.4 µM | ID50 [6]: 2.7 µM

CSc1nc(N)c(C)c(C(=O)c2ccccc2)n1
EC50 [1]: 1.71 µM | EC50 [2]: 0.06 µM | Ratio EC50 [3]: 28 | Ratio EC50 [4]: 28 | EC50 [5]: 1.67 µM | ID50 [6]: 1.9 µM

COc1ccc(CSc2nc(Cc3c(Cl)cccc3Cl)c(C)c(=O)[nH]2)cc1
EC50 [2]: 0.007 µM | Ratio EC50 [3]: 671 | EC50 [5]: 4.7 µM

CSc1nc(N)c(C)c(C(=O)CCc2ccccc2)n1
EC50 [1]: > 25 µM | EC50 [2]: > 25 µM | EC50 [5]: > 25 µM | ID50 [6]: > 20 µM

Cc1ccnc2c1NC(=O)c1cccnc1N2C1CC1 [NEVIRAPINE]
EC50 [1]: > 2 µM | EC50 [2]: 0.04 µM | Ratio EC50 [3]: 17 | EC50 [5]: 0.68 µM

CSc1nc(N)c(C)c(C(O)c2ccccc2)n1 (centres undefined)
EC50 [1]: > 25 µM | EC50 [2]: > 25 µM | EC50 [5]: > 25 µM | ID50 [6]: 7.7 µM

CSc1nc(N)c(C)c(C(F)c2ccccc2)n1 (centres undefined)
EC50 [1]: > 25 µM | EC50 [2]: > 25 µM | EC50 [5]: > 25 µM | ID50 [6]: > 20 µM

O=C1Nc2ccc(Cl)cc2[C@@](C#CC2CC2)(C(F)(F)F)O1 [EFAVIRENZ]
EC50 [1]: 0.008 µM | EC50 [5]: 0.133 µM

CSc1nc(N)c(C)c(C(=O)Cc2ccccc2)n1
EC50 [1]: > 25 µM | EC50 [2]: > 25 µM | EC50 [5]: > 25 µM | ID50 [6]: > 20 µM

CSc1nc(N)c(C)c(/C(=N\O)c2ccccc2)n1
EC50 [1]: > 25 µM | EC50 [2]: 10.5 µM | EC50 [5]: > 25 µM | ID50 [6]: > 20 µM

CSc1nc(N)c(C)c(C(=O)c2cccc(F)c2)n1
EC50 [1]: 0.779 µM | EC50 [2]: 0.034 µM | Ratio EC50 [3]: 20 | Ratio EC50 [4]: 23 | EC50 [5]: 0.695 µM | ID50 [6]: 0.2 µM

CNc1nc(N)c(C)c(C(=O)c2ccccc2)n1
EC50 [1]: > 25 µM | EC50 [2]: 3.4 µM | EC50 [5]: > 25 µM | ID50 [6]: > 20 µM

CSc1nc(N)c(C)c(C(Cl)c2ccccc2)n1 (centres undefined)
EC50 [1]: > 25 µM | EC50 [2]: 12 µM | EC50 [5]: > 25 µM | ID50 [6]: > 20 µM
